Results taken from patent publication US11046721B2, “Ruthenium-based photolinkers and methods of use” (The Trustees of the University of Pennsylvania, priority 2014, dated 2021).

Tests used:
chordin (chd) = assay: chd knockdown phenotype in microinjected zebrafish embryos; type: in vivo; conditions: incubated in the dark; for Phenotype of embryos: injected at 1-cell stage, 24-28 hpf
Protocol: FIG. 15 is a series of images depicting zebrafish, including the chd-MO knockdown phenotype. Zebrafish embryos were injected at the 1-cell stage with 0.51 mM chd-MO and imaged at 24 hpf. […] Embryos scored as normal had V-shaped somites, and normal head and tail development. Severe was identified by decreased head size, U-shaped somites, and a large blood island on the tail. The moderate and mild phenotypes were identified by U-shaped somites and a medium or small blood island on the tail.
(§1) FIG. 16A is an image of a wildtype embryo, uninjected. […] All embryos were injected at 1-cell stage. […] MO Control: Zebrafish embryos were injected at the 1-cell stage with 0.25 mM ntl-MO and imaged at 24 hpf. Ru-MO-ntl: Zebrafish embryos were injected at the 1-cell stage with 0.25 mM Ru-MO-ntl. Half of the embryos were irradiated (450 nm, 14 mW/cm^2, 5 min) at 1 hpf, while the other half were incubated in the dark. Embryos were scored for phenotype at 24 hpf and compared to wildtype.
Zebrafish embryos were obtained. All embryos obtained were TLF×TLF WT. Zebrafish embryo injection solutions were prepared to contain a final concentration of 0.1 M KCl and 0.25% phenol red dye. All injections were performed at the one-cell stage and injected into the cell compartment only. A Harvard Apparatus PLI-100 pico-injector was used to inject controlled volumes. Injection volume was calibrated to dispense 5 nL per embryo. Zebrafish embryos were incubated at 28° C. in E3 zebrafish medium. […]
MO-chd or Ru-cMO-chd (514 pmol/μL) was microinjected into 1-cell-stage zebrafish embryos, which were incubated at 28° C. in the dark and at 24 hours post-fertilization (hpf), scored for phenotypic response and imaged using a previously reported method (Westerfield, from “The Zebrafish Book. A guide for the Laboratory Use of Zebrafish (Danio rerio).” 4th ed.; University of Oregon Press, 2000). Embryos scored as normal had V-shaped somites, and normal head and tail development. […]

[1] = Selective photoactivation of Ru photolinkers (FIG. 25B); type: physicochemical
Description: FIG. 25, comprising FIG. 25A-25B, depicts exemplary compounds of the invention.
Compounds [Ru(bpy)2(4-pentynenitrile)2][Cl]2 (Ru420) and [Ru(biq)2(4-pentynenitrile)2][Cl]2 (Ru530) are compounds of the invention which are useful for multiplexing of DNA and morpholino oligonucleotides (FIG. 25A).

[2] = 450-nm light, 53 mW/cm^2, 80 μM, 1.5 mL, stirred
Protocol: Light source: 450 nm laser (14 mW/cm^2), 14 μM RuBEP in water, 0.2 OD.
A sapphire Galaxy Blue handheld laser was purchased from Beam of Light Technologies (Oregon, USA) and used to determine the quantum yield of RuBEP. Measured power at the sample was 53 mW/cm^2, with a maximum output wavelength of 450 nm.
Photodissociation of 3EP from RuBEP was monitored by LCMS (FIG. 4), UV-Vis (FIG. 6B) and ^1H and ^13C NMR (FIG. 5) spectroscopies. Upon continuous irradiation with 450-nm light (53 mW/cm^2, focused to 0.5 cm^2), the λmax red-shifted from 450 nm to 473 nm (FIG. 6B).
The formula for fitting the initial kinetics of the photoreaction is as follows:
[formula] Where: P1=net power of the laser during the trial (mW) E=energy of 450 nm light (J/photon) εs=extinction coefficient of RuBEP (starting material) at 475 nm=1800 M^−1cm^−1 εp=extinction coefficient of Rubpy2(3EP)(H2O)(product) at 475 nm=3800 M^−1cm^−1

[3] = reported, Zayat et al. 2003; cited from earlier work
notail (ntl) = assay: ntl knockdown phenotype in microinjected zebrafish embryos; type: in vivo; conditions: 0.25 mM injected at 1-cell stage, 24 hpf
Protocol: as §1
FIG. 17 is a series of images depicting zebrafish, including the ntl-MO knockdown phenotype. Zebrafish embryos were injected at the 1-cell stage with 0.25 mM ntl-MO and imaged at 24 hpf. […] Class 2 was identified by U-shaped somites, a shortened posterior axis, with the notochord still present.
FIG. 19 is a graph depicting Ru-cMO-ntl in vivo data. MO Control:Zebrafish embryos were injected at the 1-cell stage with 0.25 mM ntl-MO and imaged at 24 hpf. Ru-cMO-ntl:Zebrafish embryos were injected at the 1-cell stage with 0.25 mM Ru-cMO-ntl. Half of the embyros were irradiated (450 nm, 14 mW/cm^2, 5 min) at 1 hpf, while the other half were incubated in the dark. Embryos were scored for phenotype at 24 hpf and compared to wildtype.
Zebrafish embryos were obtained. All embryos obtained were TLF×TLF WT. […]

## MO-chd: linear antisense morpholino targeting chordin, ATCCACAGCAGCCCCTCCATCATCC (SEQ ID NO: 4) (all phosphorodiamidate morpholino (PMO))
Chordin (chd); MO-chd control injections, 24 hpf
  Embryos with normal phenotype: ~5%
Chordin (chd); listed as Bis-azido chd-MO
  Phenotype of embryos: chd knockdown phenotype
Chordin (chd); listed as chd-MO
  Phenotype of embryos: severe to mild

## [Ru(bipyridine)2(4- pentynenitrile)2]^2+ [Ru420]
[1]
  Selective activation: can be selectively activated

## [Ru(bipyridine)2(3-ethynyl- pyridine)2]^2+ [RuBEP]
[2]
  Time to complete photolysis of bulk solution: 5 min
[1]
  Selective activation: can be selectively activated

## [Ru(biquinoline)2(4- pentynenitrile)2]^2+ [Ru530]
[1]
  Selective activation: can be selectively activated

## [Cl-].[Cl-].[Ru+2].c1ccc(-c2ccccn2)nc1.c1ccc(-c2ccccn2)nc1.c1ccncc1.c1ccncc1 [Ru(bpy)2(pyr)2Cl2]
[3]
  Quantum yield of ligand exchange: 0.4

## ntl-MO: linear antisense morpholino targeting notail, AGCTTGAGATAAGTCCGACGATCCT (SEQ ID NO: 7) (all phosphorodiamidate morpholino (PMO))
Notail (ntl)
  ntl knockdown phenotype: severe (class 4) to mild (class 2)
